Assay results published in ChEMBL document CHEMBL1149819, “Synthesis and in vivo anti-mutagenic activity of novel melatonin derivatives” (2008).

Legend:
Details in all cases: route intragastric
Mus musculus [1] = test: Antimutagenic activity in mouse brain assessed as peroxidase activity per microgram of tissue at 18.38 mg/kg administered intragastrically for 1 week; format: functional
Mus musculus [2] = test: Antimutagenic activity in mouse brain assessed as cholinesterase activity per microgram of tissue at 18.38 mg/kg administered intragastrically for 1 week; format: functional
Mus musculus [3] = test: Antimutagenic activity against cyclophosphamide-induced mutagenicity in Albino mouse kidney assessed as DNA level per gram of tissue at 18.38 mg/kg administered intragastrically for 1 week; format: functional
Mus musculus [4] = test: Antimutagenic activity in mouse brain assessed as protein level per gram of tissue at 18.38 mg/kg administered intragastrically for 1 week; format: functional
Mus musculus [5] = test: Antimutagenic activity against cyclophosphamide-induced mutagenicity in Albino mouse brain assessed as RNA level per gram of tissue at 18.38 mg/kg administered intragastrically for 1 week; format: functional
Mus musculus [6] = test: Antimutagenic activity in Albino mouse testes assessed as RNA level per gram of tissue at 18.38 mg/kg administered intragastrically for 1 week; format: functional, Testis
Mus musculus [7] = test: Antimutagenic activity against cyclophosphamide-induced mutagenicity in mouse liver assessed as protein level per gram of tissue at 18.38 mg/kg administered intragastrically for 1 week; format: functional
Mus musculus [8] = test: Antimutagenic activity against cyclophosphamide-induced mutagenicity in mouse brain assessed as protein level per gram of tissue at 18.38 mg/kg administered intragastrically for 1 week; format: functional
Mus musculus [9] = test: Inhibition of cyclophosphamide-induced increase in micronuclei/polychromatic erythrocytes count in mouse at 14.16 mg/kg administered intragastrically for 1 week by micronuclei assay; format: functional; parameters: scale not given: the % may be the effect or the level left
Mus musculus [10] = test: Antimutagenic activity in Albino mouse brain assessed as RNA level per gram of tissue at 18.38 mg/kg administered intragastrically for 1 week; format: functional
Mus musculus [11] = test: Antimutagenic activity against cyclophosphamide-induced mutagenicity in Albino mouse testes assessed as DNA level per gram of tissue at 18.38 mg/kg administered intragastrically for 1 week; format: functional, Testis
Mus musculus [12] = test: Antimutagenic activity in Albino mouse brain assessed as DNA level per gram of tissue at 18.38 mg/kg administered intragastrically for 1 week; format: functional
Mus musculus [13] = test: Antimutagenic activity against cyclophosphamide-induced mutagenicity in mouse testes assessed as protein level per gram of tissue at 18.38 mg/kg administered intragastrically for 1 week; format: functional, Testis
Mus musculus [14] = test: Antimutagenic activity in Albino mouse testes assessed as DNA level per gram of tissue at 18.38 mg/kg administered intragastrically for 1 week; format: functional, Testis
Mus musculus [15] = test: Antimutagenic activity in mouse kidney assessed as protein level per gram of tissue at 18.38 mg/kg administered intragastrically for 1 week; format: functional
Mus musculus [16] = test: Antimutagenic activity against cyclophosphamide-induced mutagenicity in Albino mouse liver assessed as RNA level per gram of tissue at 18.38 mg/kg administered intragastrically for 1 week; format: functional
Mus musculus [17] = test: Antimutagenic activity against cyclophosphamide-induced mutagenicity in Albino mouse liver assessed as DNA level per gram of tissue at 18.38 mg/kg administered intragastrically for 1 week; format: functional
Mus musculus [18] = test: Antimutagenic activity against cyclophosphamide-induced mutagenicity in mouse kidney assessed as protein level per gram of tissue at 18.38 mg/kg administered intragastrically for 1 week; format: functional
Mus musculus [19] = test: Antimutagenic activity against cyclophosphamide-induced mutagenicity in mouse brain assessed as cholinesterase activity per microgram of tissue at 18.38 mg/kg administered intragastrically for 1 week; format: functional
Mus musculus [20] = test: Antimutagenic activity against cyclophosphamide-induced mutagenicity in Albino mouse kidney assessed as RNA level per gram of tissue at 18.38 mg/kg administered intragastrically for 1 week; format: functional
Mus musculus [21] = test: Antimutagenic activity against cyclophosphamide-induced mutagenicity in Albino mouse brain assessed as DNA level per gram of tissue at 18.38 mg/kg administered intragastrically for 1 week; format: functional
Mus musculus [22] = test: Antimutagenic activity in Albino mouse kidney assessed as DNA level per gram of tissue at 18.38 mg/kg administered intragastrically for 1 week; format: functional
Mus musculus [23] = test: Antimutagenic activity in Albino mouse kidney assessed as RNA level per gram of tissue at 18.38 mg/kg administered intragastrically for 1 week; format: functional
Mus musculus [24] = test: Antimutagenic activity in mouse liver assessed as protein level per gram of tissue at 18.38 mg/kg administered intragastrically for 1 week; format: functional
Mus musculus [25] = test: Antimutagenic activity against cyclophosphamide-induced mutagenicity in Albino mouse testes assessed as RNA level per gram of tissue at 18.38 mg/kg administered intragastrically for 1 week; format: functional, Testis
Mus musculus [26] = test: Antimutagenic activity in Albino mouse liver assessed as DNA level per gram of tissue at 18.38 mg/kg administered intragastrically for 1 week; format: functional
Mus musculus [27] = test: Antimutagenic activity against cyclophosphamide-induced mutagenicity in mouse brain assessed as peroxidase activity per microgram of tissue at 18.38 mg/kg administered intragastrically for 1 week; format: functional
Mus musculus [28] = test: Antimutagenic activity in Albino mouse liver assessed as RNA level per gram of tissue at 18.38 mg/kg administered intragastrically for 1 week; format: functional
Mus musculus [29] = test: Antimutagenic activity in mouse brain assessed as cholinesterase activity per microgram of tissue at 23.04 mg/kg administered intragastrically for 1 week; format: functional
Mus musculus [30] = test: Antimutagenic activity against cyclophosphamide-induced mutagenicity in Albino mouse liver assessed as DNA level per gram of tissue at 23.04 mg/kg administered intragastrically for 1 week; format: functional
Mus musculus [31] = test: Antimutagenic activity against cyclophosphamide-induced mutagenicity in Albino mouse testes assessed as RNA level per gram of tissue at 23.04 mg/kg administered intragastrically for 1 week; format: functional, Testis
Mus musculus [32] = test: Antimutagenic activity against cyclophosphamide-induced mutagenicity in Albino mouse brain assessed as RNA level per gram of tissue at 23.04 mg/kg administered intragastrically for 1 week; format: functional
Mus musculus [33] = test: Antimutagenic activity in Albino mouse testes assessed as RNA level per gram of tissue at 23.04 mg/kg administered intragastrically for 1 week; format: functional, Testis
Mus musculus [34] = test: Inhibition of cyclophosphamide-induced increase in micronuclei/polychromatic erythrocytes count in mouse at 23.04 mg/kg administered intragastrically for 1 week by micronuclei assay; format: functional; parameters: scale not given: the % may be the effect or the level left
Mus musculus [35] = test: Antimutagenic activity against cyclophosphamide-induced mutagenicity in Albino mouse liver assessed as RNA level per gram of tissue at 23.04 mg/kg administered intragastrically for 1 week; format: functional
Mus musculus [36] = test: Antimutagenic activity in Albino mouse kidney assessed as RNA level per gram of tissue at 23.04 mg/kg administered intragastrically for 1 week; format: functional
Mus musculus [37] = test: Antimutagenic activity against cyclophosphamide-induced mutagenicity in Albino mouse kidney assessed as RNA level per gram of tissue at 23.04 mg/kg administered intragastrically for 1 week; format: functional
Mus musculus [38] = test: Antimutagenic activity against cyclophosphamide-induced mutagenicity in Albino mouse kidney assessed as DNA level per gram of tissue at 23.04 mg/kg administered intragastrically for 1 week; format: functional
Mus musculus [39] = test: Antimutagenic activity against cyclophosphamide-induced mutagenicity in mouse brain assessed as cholinesterase activity per microgram of tissue at 23.04 mg/kg administered intragastrically for 1 week; format: functional
Mus musculus [40] = test: Antimutagenic activity against cyclophosphamide-induced mutagenicity in Albino mouse brain assessed as DNA level per gram of tissue at 23.04 mg/kg administered intragastrically for 1 week; format: functional
Mus musculus [41] = test: Antimutagenic activity against cyclophosphamide-induced mutagenicity in mouse brain assessed as peroxidase activity per microgram of tissue at 23.04 mg/kg administered intragastrically for 1 week; format: functional
Mus musculus [42] = test: Antimutagenic activity in Albino mouse liver assessed as DNA level per gram of tissue at 23.04 mg/kg administered intragastrically for 1 week; format: functional
Mus musculus [43] = test: Antimutagenic activity against cyclophosphamide-induced mutagenicity in Albino mouse testes assessed as DNA level per gram of tissue at 23.04 mg/kg administered intragastrically for 1 week; format: functional, Testis
Mus musculus [44] = test: Antimutagenic activity in mouse brain assessed as protein level per gram of tissue at 23.04 mg/kg administered intragastrically for 1 week; format: functional
Mus musculus [45] = test: Antimutagenic activity in Albino mouse brain assessed as RNA level per gram of tissue at 23.04 mg/kg administered intragastrically for 1 week; format: functional
Mus musculus [46] = test: Antimutagenic activity against cyclophosphamide-induced mutagenicity in mouse kidney assessed as protein level per gram of tissue at 23.04 mg/kg administered intragastrically for 1 week; format: functional
Mus musculus [47] = test: Antimutagenic activity against cyclophosphamide-induced mutagenicity in mouse testes assessed as protein level per gram of tissue at 23.04 mg/kg administered intragastrically for 1 week; format: functional, Testis
Mus musculus [48] = test: Antimutagenic activity in Albino mouse testes assessed as DNA level per gram of tissue at 23.04 mg/kg administered intragastrically for 1 week; format: functional, Testis
Mus musculus [49] = test: Antimutagenic activity in mouse kidney assessed as protein level per gram of tissue at 23.04 mg/kg administered intragastrically for 1 week; format: functional
Mus musculus [50] = test: Antimutagenic activity in Albino mouse brain assessed as DNA level per gram of tissue at 23.04 mg/kg administered intragastrically for 1 week; format: functional
Mus musculus [51] = test: Antimutagenic activity in Albino mouse kidney assessed as DNA level per gram of tissue at 23.04 mg/kg administered intragastrically for 1 week; format: functional
Mus musculus [52] = test: Antimutagenic activity in mouse brain assessed as peroxidase activity per microgram of tissue at 23.04 mg/kg administered intragastrically for 1 week; format: functional
Mus musculus [53] = test: Antimutagenic activity against cyclophosphamide-induced mutagenicity in mouse brain assessed as protein level per gram of tissue at 23.04 mg/kg administered intragastrically for 1 week; format: functional
Mus musculus [54] = test: Antimutagenic activity in mouse liver assessed as protein level per gram of tissue at 23.04 mg/kg administered intragastrically for 1 week; format: functional
Mus musculus [55] = test: Antimutagenic activity in Albino mouse liver assessed as RNA level per gram of tissue at 23.04 mg/kg administered intragastrically for 1 week; format: functional
Mus musculus [56] = test: Antimutagenic activity against cyclophosphamide-induced mutagenicity in mouse liver assessed as protein level per gram of tissue at 23.04 mg/kg administered intragastrically for 1 week; format: functional

COc1ccc2c(c1)c(CCNC(C)=O)c1sc(-c3sc(N)c(C#N)c3N)nn12
Activity (Mus musculus [1]): 6.3 U/min | Activity (Mus musculus [2]): 3.76 U | Activity (Mus musculus [3]): 0.35 mg | Activity (Mus musculus [4]): 2.76 g | Activity (Mus musculus [5]): 0.16 mg | Activity (Mus musculus [6]): 0.27 mg | Activity (Mus musculus [7]): 9.26 g | Activity (Mus musculus [8]): 2.53 g | Activity (Mus musculus [9]): 44% | Activity (Mus musculus [10]): 0.19 mg | Activity (Mus musculus [11]): 0.3 mg | Activity (Mus musculus [12]): 0.35 mg | Activity (Mus musculus [13]): 3.11 g | Activity (Mus musculus [14]): 0.35 mg | Activity (Mus musculus [15]): 7.17 g | Activity (Mus musculus [16]): 0.49 mg | Activity (Mus musculus [17]): 0.29 mg | Activity (Mus musculus [18]): 4.14 g | Activity (Mus musculus [19]): 2.85 U | Activity (Mus musculus [20]): 0.24 mg | Activity (Mus musculus [21]): 0.22 mg | Activity (Mus musculus [22]): 0.34 mg | Activity (Mus musculus [23]): 0.28 mg | Activity (Mus musculus [24]): 9.81 g | Activity (Mus musculus [25]): 0.2 mg | Activity (Mus musculus [26]): 0.33 mg | Activity (Mus musculus [27]): 4.1 U/min | Activity (Mus musculus [28]): 0.46 mg

COc1ccc2c(c1)c(CCNC(C)=O)c1sc(-c3c(-c4ccccc4)cnn(-c4ccccc4)c3=N)nn12
Activity (Mus musculus [29]): 4.21 U | Activity (Mus musculus [30]): 0.32 mg | Activity (Mus musculus [31]): 0.2 mg | Activity (Mus musculus [32]): 0.17 mg | Activity (Mus musculus [33]): 0.36 mg | Activity (Mus musculus [34]): 65% | Activity (Mus musculus [35]): 0.51 mg | Activity (Mus musculus [36]): 0.47 mg | Activity (Mus musculus [37]): 0.4 mg | Activity (Mus musculus [38]): 0.36 mg | Activity (Mus musculus [39]): 3.03 U | Activity (Mus musculus [40]): 0.25 mg | Activity (Mus musculus [41]): 5.5 U/min | Activity (Mus musculus [42]): 0.35 mg | Activity (Mus musculus [43]): 0.31 mg | Activity (Mus musculus [44]): 3.2 g | Activity (Mus musculus [45]): 0.21 mg | Activity (Mus musculus [46]): 4.96 g | Activity (Mus musculus [47]): 4.31 g | Activity (Mus musculus [48]): 0.39 mg | Activity (Mus musculus [49]): 8.68 g | Activity (Mus musculus [50]): 0.37 mg | Activity (Mus musculus [51]): 0.38 mg | Activity (Mus musculus [52]): 9.74 U/min | Activity (Mus musculus [53]): 3.15 g | Activity (Mus musculus [54]): 10.23 g | Activity (Mus musculus [55]): 0.48 mg | Activity (Mus musculus [56]): 10.03 g
